ChEMBL document CHEMBL1201862, “PubChem BioAssay data set” (2004)
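A five-concentration, 48-hour dose response in 96-well plates underlies each endpoint, interpolated linearly between surrounding concentrations. GI50 marks 50% less growth.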 Activity calls are given as the source filed them. No stated cut-off is given here; in the data, active = GI50 up to about 1.1 µM and inactive = higher.

Tests used:
Experiment in all cases: NCI anticancer screen, dose series, 48 h
786-0 = tested on: 786-0
A498 = tested on: A498
ACHN = tested on: ACHN
CAKI-1 = tested on: CAKI-1
CCRF-CEM = tested on: CCRF-CEM
HCC 2998 = tested on: HCC 2998
HL-60 = tested on: HL-60
HOP-92 = tested on: HOP-92
HT-29 = tested on: HT-29
MDA-MB-231 = tested on: MDA-MB-231
Malme-3M = tested on: Malme-3M
NCI-H23 = tested on: NCI-H23
OVCAR-3 = tested on: OVCAR-3
SF-295 = tested on: SF-295
SK-MEL-28 = tested on: SK-MEL-28
SK-MEL-2 = tested on: SK-MEL-2
SN12C = tested on: SN12C
SNB-19 = tested on: SNB-19
SW-620 = tested on: SW-620
T47D = tested on: T47D

Measured: GI50

CCOC(=O)/C=C(/C(=O)OCC)n1ccc(=O)n(Cc2cnnn2COCCOC(C)=O)c1=O
active: CCRF-CEM 0.713 µM | HL-60 0.018 µM
inactive: 786-0 10 µM | A498 24 µM | ACHN 8.73 µM | CAKI-1 5.93 µM | HCC 2998 16.2 µM | HOP-92 2.08 µM | HT-29 17.5 µM | MDA-MB-231 18.6 µM | Malme-3M 12.5 µM | NCI-H23 17.1 µM | OVCAR-3 14.9 µM | SF-295 > 100 µM | SK-MEL-28 16.3 µM | SK-MEL-2 19.9 µM | SN12C 22.1 µM | SNB-19 > 31.6 µM | SW-620 3.98 µM | T47D 9.57 µM

CN(C)C(=S)NC(=S)Nc1ccc2ccccc2c1
inactive: 786-0 12.8 µM | A498 12.6 µM | ACHN 18.6 µM | CAKI-1 13.9 µM | HCC 2998 15.5 µM | HL-60 5.69 µM | HOP-92 17 µM | HT-29 12 µM | MDA-MB-231 20 µM | Malme-3M 13.8 µM | NCI-H23 9.64 µM | OVCAR-3 14.4 µM | SF-295 4.55 µM | SK-MEL-28 14.5 µM | SK-MEL-2 13.9 µM | SN12C 2.69 µM | SNB-19 12.3 µM | SW-620 9.89 µM | T47D 9.55 µM
active: CCRF-CEM 0.804 µM

CC1=NN(c2nc(N)nc(/C(C#N)=C/c3cccn3-c3cc(Cl)cc(Cl)c3)n2)C(C)(C)C1
inactive: 786-0 > 100 µM | A498 > 100 µM | ACHN > 100 µM | CAKI-1 > 100 µM | CCRF-CEM 4.47 µM | HCC 2998 > 100 µM | HL-60 14.8 µM | HOP-92 > 100 µM | HT-29 > 100 µM | MDA-MB-231 41.2 µM | Malme-3M > 100 µM | NCI-H23 > 100 µM | OVCAR-3 > 100 µM | SF-295 > 100 µM | SK-MEL-28 > 100 µM | SK-MEL-2 > 100 µM | SN12C 35.2 µM | SNB-19 40.6 µM | SW-620 > 100 µM | T47D > 100 µM

COc1cccc2c1C(=O)c1ccc3cc(CCl)cc(O)c3c1C2=O
inactive: A498 1.19 µM | T47D 1.2 µM
active: 786-0 0.174 µM | ACHN 0.233 µM | CAKI-1 0.733 µM | CCRF-CEM 0.309 µM | HCC 2998 0.951 µM | HL-60 0.21 µM | HOP-92 0.394 µM | HT-29 0.207 µM | MDA-MB-231 0.205 µM | Malme-3M 0.188 µM | NCI-H23 0.402 µM | OVCAR-3 0.243 µM | SF-295 0.314 µM | SK-MEL-28 0.348 µM | SK-MEL-2 0.33 µM | SN12C 0.163 µM | SNB-19 0.897 µM | SW-620 0.127 µM

CCOC(=O)/C(=C\NC(=S)Nc1ccc(OCC)cc1)C(=O)c1ccccc1
inactive: 786-0 > 100 µM | A498 20.7 µM | ACHN > 100 µM | CAKI-1 > 100 µM | CCRF-CEM > 100 µM | HCC 2998 > 100 µM | HL-60 > 100 µM | HOP-92 8.26 µM | HT-29 > 100 µM | MDA-MB-231 > 100 µM | Malme-3M > 100 µM | NCI-H23 > 100 µM | OVCAR-3 > 100 µM | SF-295 > 100 µM | SK-MEL-28 > 100 µM | SK-MEL-2 > 100 µM | SN12C > 100 µM | SNB-19 > 100 µM | SW-620 > 100 µM | T47D 24 µM

O=C1C=C(c2ccccc2)OC1C1Sc2ccccc2NC1=O (stereo not given)
inactive: 786-0 5.83 µM | A498 7.89 µM | ACHN 4.9 µM | CAKI-1 11.6 µM | CCRF-CEM 6.43 µM | HCC 2998 5.69 µM | HL-60 3.15 µM | HOP-92 9.68 µM | HT-29 11.5 µM | MDA-MB-231 10.9 µM | Malme-3M 24.3 µM | NCI-H23 3.77 µM | OVCAR-3 3.97 µM | SF-295 5.98 µM | SK-MEL-28 9.73 µM | SK-MEL-2 8.51 µM | SN12C 9.23 µM | SNB-19 4.08 µM | SW-620 9.23 µM | T47D 10.4 µM

NC(=S)N/N=C\c1nccc2ccccc12
active: 786-0 0.29 µM | A498 0.21 µM | ACHN 0.0501 µM | CAKI-1 0.33 µM | CCRF-CEM 0.27 µM | HL-60 0.327 µM | HOP-92 0.264 µM | HT-29 0.485 µM | MDA-MB-231 0.46 µM | NCI-H23 0.314 µM | OVCAR-3 0.281 µM | SF-295 0.187 µM | SK-MEL-28 0.36 µM | SN12C 0.262 µM | SNB-19 0.531 µM | SW-620 0.561 µM
inactive: HCC 2998 3.04 µM | Malme-3M 1.73 µM | SK-MEL-2 6 µM | T47D 2.69 µM

CC(C)=CC(=O)C[C@H]1C(=O)O[C@@H]2C[C@H]3C(C)=CC(=O)[C@@H](O)[C@]3(C)[C@H]3[C@@]4(O)OC[C@]32[C@@H]1[C@@H](C)[C@H]4O
active: 786-0 0.0266 µM | A498 0.236 µM | ACHN 0.0278 µM | CAKI-1 0.0975 µM | CCRF-CEM < 0.01 µM | HCC 2998 0.0313 µM | HL-60 < 0.01 µM | HOP-92 0.0216 µM | HT-29 < 0.0107 µM | MDA-MB-231 0.0454 µM | Malme-3M < 0.01 µM | NCI-H23 < 0.01 µM | OVCAR-3 < 0.0146 µM | SF-295 0.023 µM | SK-MEL-28 < 0.0114 µM | SK-MEL-2 0.0311 µM | SN12C 0.043 µM | SNB-19 < 0.0127 µM | SW-620 0.0281 µM | T47D < 0.0111 µM

O=C(CCN1CCCCC1)Nc1ccc2c(c1)C(=O)c1ccc(NC(=O)CCN3CCCCC3)cc1C2=O
inactive: 786-0 1.61 µM | A498 13.7 µM | ACHN 11.6 µM | CAKI-1 12.6 µM | CCRF-CEM 2.37 µM | HCC 2998 4.45 µM | HL-60 2.79 µM | HOP-92 15.4 µM | HT-29 3.24 µM | MDA-MB-231 2.04 µM | Malme-3M 10.5 µM | NCI-H23 6.05 µM | OVCAR-3 8.11 µM | SF-295 5.22 µM | SK-MEL-28 17.5 µM | SK-MEL-2 5.16 µM | SN12C 5.81 µM | SNB-19 4.48 µM | SW-620 2.1 µM | T47D 16.5 µM

Cc1cc(C)nc(NS(=O)(=O)c2ccc(Nc3c4ccccc4nc4c(C(=O)NC(CO)(CO)CO)cccc34)cc2)n1
inactive: 786-0 29 µM | A498 31.3 µM | ACHN 34 µM | CAKI-1 89.3 µM | CCRF-CEM 16.1 µM | HCC 2998 16 µM | HL-60 31.6 µM | HOP-92 23.6 µM | HT-29 28.1 µM | MDA-MB-231 32.1 µM | Malme-3M > 10 µM | NCI-H23 33.7 µM | OVCAR-3 29.3 µM | SF-295 30.8 µM | SK-MEL-28 27.1 µM | SK-MEL-2 20.8 µM | SN12C 29.6 µM | SNB-19 25.4 µM | SW-620 38.5 µM | T47D 37.8 µM

COc1cccc(-c2nc(N)c(C#N)c3c2CCS(=O)(=O)c2ccc(C)cc2-3)c1
inactive: 786-0 22.6 µM | A498 30.1 µM | ACHN > 100 µM | CAKI-1 9.98 µM | CCRF-CEM 14.6 µM | HCC 2998 17.6 µM | HL-60 5.08 µM | HOP-92 68.7 µM | HT-29 9.68 µM | MDA-MB-231 21.8 µM | Malme-3M 18.2 µM | NCI-H23 43.1 µM | OVCAR-3 21 µM | SF-295 23.6 µM | SK-MEL-28 > 78.5 µM | SK-MEL-2 38.3 µM | SN12C 44.4 µM | SNB-19 > 31.3 µM | SW-620 > 34.1 µM | T47D 43.2 µM

NC1CC(=O)c2csc(Br)c21 (stereo not given)
inactive: 786-0 12.9 µM | A498 > 36.5 µM | ACHN 16.4 µM | CAKI-1 10.9 µM | CCRF-CEM 4.15 µM | HCC 2998 18.5 µM | HL-60 4.39 µM | HOP-92 9.89 µM | HT-29 19.6 µM | MDA-MB-231 23.9 µM | Malme-3M 17.2 µM | NCI-H23 17.1 µM | OVCAR-3 15.3 µM | SF-295 35.2 µM | SK-MEL-28 18.5 µM | SK-MEL-2 16 µM | SN12C 13.4 µM | SNB-19 23.3 µM | SW-620 4.84 µM | T47D 24 µM

OC1(C(F)(F)F)OCCN=C1C(F)(F)F (stereo not given)
inactive: 786-0 > 100 µM | A498 > 100 µM | ACHN > 100 µM | CAKI-1 52.2 µM | CCRF-CEM 46.8 µM | HCC 2998 > 100 µM | HL-60 37.7 µM | HOP-92 60.5 µM | HT-29 > 100 µM | MDA-MB-231 > 100 µM | Malme-3M 24.8 µM | NCI-H23 > 100 µM | OVCAR-3 52 µM | SF-295 > 100 µM | SK-MEL-28 > 100 µM | SK-MEL-2 31.5 µM | SN12C 65.9 µM | SNB-19 > 100 µM | SW-620 56.2 µM | T47D > 100 µM

CC(NNC(=O)c1cc[n+]([BH2-]C#N)cc1)C(F)(F)F (stereo not given)
inactive: 786-0 > 100 µM | A498 > 100 µM | ACHN > 100 µM | CAKI-1 > 100 µM | CCRF-CEM > 100 µM | HCC 2998 > 100 µM | HL-60 > 100 µM | HOP-92 > 100 µM | HT-29 > 100 µM | MDA-MB-231 > 100 µM | Malme-3M > 100 µM | NCI-H23 > 100 µM | OVCAR-3 > 100 µM | SF-295 > 100 µM | SK-MEL-28 > 100 µM | SK-MEL-2 > 100 µM | SN12C > 100 µM | SNB-19 > 100 µM | SW-620 > 100 µM | T47D > 100 µM
